The test system of the test is CD2F1 mice, L1210 leukemia ip, survival T/C. The test is described as follows: NCI In Vivo Anticancer Drug Screen. Data for tumor model L1210 Leukemia (intraperitoneal) in CD2F1 (CDF1) mice. To be noted: higher = longer survival. In outline:
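Compound-dosed mice with transplantable tumor versus matched vehicle controls; endpoint ratio T/C reported.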

The mark [1] stands for this setting: endpoint: mean survival time, dose: 100.0 mg/kg/injection, schedule: Q01DX009 (ip), vehicle: saline with Tween-80.
Setting [2] is: endpoint: mean survival time, dose: 100.0 mg/kg/injection, schedule: Q04DX003 (ip), vehicle: saline with Tween-80.
Where [3] appears, read: endpoint: mean survival time, dose: 200.0 mg/kg/injection, schedule: Q01DX009 (ip), vehicle: saline with Tween-80.
The mark [4] stands for this setting: endpoint: mean survival time, dose: 200.0 mg/kg/injection, schedule: Q04DX003 (ip), vehicle: saline with Tween-80.
The mark [5] stands for this setting: endpoint: mean survival time, dose: 400.0 mg/kg/injection, schedule: Q04DX003 (ip), vehicle: saline with Tween-80.

“And” between values parts separate entries of the source, which are not always exact repeats. Equal values may be shown once. Inconclusive results and toxic doses are left out.

As to `O=C(O)C(O)C(O)C(O)CO` (stereo unspecified), the T/C is 95 % of control (endpoint: mean survival time, dose: 100.0 mg/kg/injection, schedule: Q04DX003 (ip), vehicle: saline); 105 % of control (endpoint: mean survival time, dose: 200.0 mg/kg/injection, schedule: Q04DX003 (ip), vehicle: saline); 97 % of control (endpoint: mean survival time, dose: 400.0 mg/kg/injection, schedule: Q04DX003 (ip), vehicle: saline).

Regarding `Nc1nc(N)c2c(n1)NCN(CCc1cccc(Cl)c1)C2`, the T/C is 96 % of control (endpoint: mean survival time, dose: 0.75 mg/kg/injection, schedule: Q01DX009 (ip), vehicle: distilled water + Tween-80); 100 % of control (endpoint: mean survival time, dose: 1.5 mg/kg/injection, schedule: Q01DX009 (ip), vehicle: distilled water + Tween-80); 98 % of control (endpoint: mean survival time, dose: 3.0 mg/kg/injection, schedule: Q01DX009 (ip), vehicle: distilled water + Tween-80); 96 % of control (endpoint: mean survival time, dose: 6.0 mg/kg/injection, schedule: Q01DX009 (ip), vehicle: distilled water + Tween-80); 94 % of control (endpoint: mean survival time, dose: 12.0 mg/kg/injection, schedule: Q01DX009 (ip), vehicle: distilled water + Tween-80); 94 % of control (endpoint: mean survival time, dose: 24.0 mg/kg/injection, schedule: Q01DX009 (ip), vehicle: distilled water + Tween-80).

In the case of `O=C1C=CC(=O)N1c1ccc(O)cc1`, the T/C (endpoint: mean survival time, dose: 1.25 mg/kg/injection, schedule: Q01DX009 (ip), vehicle: saline with Tween-80) was 100 % of control; the T/C (endpoint: mean survival time, dose: 2.5 mg/kg/injection, schedule: Q01DX009 (ip), vehicle: saline with Tween-80) is 98 % of control; the T/C (endpoint: mean survival time, dose: 5.0 mg/kg/injection, schedule: Q01DX009 (ip), vehicle: saline with Tween-80) is 93 % of control; the T/C (endpoint: mean survival time, dose: 5.0 mg/kg/injection, schedule: Q04DX003 (ip), vehicle: saline with Tween-80) was 98 % of control.

On to `CC(=O)/C=C(\C)OC1CCCCC1`, for which the T/C is, setting by setting: (endpoint: mean survival time, dose: 100.0 mg/kg/injection, schedule: Q01DX009 (ip), vehicle: saline) 98 % of control; (endpoint: mean survival time, dose: 200.0 mg/kg/injection, schedule: Q01DX009 (ip), vehicle: saline) 93 % of control.

As to `O=S(=O)(Nc1ccc(Cc2ccc(NS(=O)(=O)c3ccccc3)cc2)cc1)c1ccccc1`, the T/C is 88 % of control (endpoint: mean survival time, dose: 100.0 mg/kg/injection, schedule: Q01DX001 (ip), vehicle: saline with Tween-80); 90 % of control (endpoint: mean survival time, dose: 200.0 mg/kg/injection, schedule: Q01DX001 (ip), vehicle: saline with Tween-80); 88 % of control (endpoint: mean survival time, dose: 400.0 mg/kg/injection, schedule: Q01DX001 (ip), vehicle: saline with Tween-80).

For `O=C(N/N=C/c1ccccc1O)c1ccncc1`, the T/C under setting [1] was 98 % of control; the T/C under setting [2] was 98 % of control; the T/C under setting [3] is 95 % of control; the T/C under setting [4] is 96 % of control; the T/C (endpoint: mean survival time, dose: 400.0 mg/kg/injection, schedule: Q01DX009 (ip), vehicle: saline with Tween-80) was 98 % of control; the T/C under setting [5] was 98 % of control.

Turning to `Nc1c(Cl)cc(Cl)c(-c2c(Cl)cc(Cl)c(N)c2Cl)c1Cl`, the T/C was 100 % of control (endpoint: mean survival time, dose: 12.5 mg/kg/injection, schedule: Q01DX009 (ip), vehicle: other); 101 % of control (endpoint: mean survival time, dose: 25.0 mg/kg/injection, schedule: Q01DX009 (ip), vehicle: other); 101 % of control (endpoint: mean survival time, dose: 50.0 mg/kg/injection, schedule: Q01DX009 (ip), vehicle: other); 97 % of control (endpoint: mean survival time, dose: 100.0 mg/kg/injection, schedule: Q01DX009 (ip), vehicle: other); 94 % of control (endpoint: mean survival time, dose: 200.0 mg/kg/injection, schedule: Q01DX009 (ip), vehicle: other).

Turning to `O=C1NC(=O)C2(CCc3ccc(N(CCCl)CCCl)cc32)N1` (stereo unspecified), the T/C is, setting by setting: (endpoint: mean survival time, dose: 6.25 mg/kg/injection, schedule: Q01DX009 (ip), vehicle: Klucel (hydroxypropylcellulose) (HPC)) 117 % of control; (endpoint: mean survival time, dose: 6.25 mg/kg/injection, schedule: Q01DX009 (oral), vehicle: saline with Tween-80) 96 % of control and 97 % of control; (endpoint: mean survival time, dose: 12.5 mg/kg/injection, schedule: Q01DX009 (oral), vehicle: saline with Tween-80) 100 % of control and 105 % of control; (endpoint: mean survival time, dose: 25.0 mg/kg/injection, schedule: Q01DX009 (ip), vehicle: Klucel (hydroxypropylcellulose) (HPC)) 154 % of control and 157 % of control; (endpoint: mean survival time, dose: 25.0 mg/kg/injection, schedule: Q01DX009 (oral), vehicle: saline with Tween-80) 102 % of control and 104 % of control; (endpoint: mean survival time, dose: 50.0 mg/kg/injection, schedule: Q01DX009 (ip), vehicle: Klucel (hydroxypropylcellulose) (HPC)) 122 % of control and 103 % of control. Also, the T/C by setting is: (endpoint: mean survival time, dose: 50.0 mg/kg/injection, schedule: Q01DX009 (oral), vehicle: saline with Tween-80) 100 % of control and 104 % of control; (endpoint: mean survival time, dose: 100.0 mg/kg/injection, schedule: Q01DX009 (ip), vehicle: Klucel (hydroxypropylcellulose) (HPC)) 97 % of control; (endpoint: mean survival time, dose: 100.0 mg/kg/injection, schedule: Q01DX009 (oral), vehicle: saline with Tween-80) 107 % of control and 109 % of control; (endpoint: mean survival time, dose: 200.0 mg/kg/injection, schedule: Q01DX009 (oral), vehicle: saline with Tween-80) 106 % of control and 110 % of control.

Take `CCOC(=N)CCCl`: the T/C under setting [2] is 106 % of control, the T/C under setting [4] is 101 % of control and the T/C under setting [5] is 97 % of control.

`CC[n+]1ccc(Cc2ccc([N+](=O)[O-])cc2)cc1`: under “endpoint: mean survival time, dose: 100.0 mg/kg/injection, schedule: Q04DX003 (ip), vehicle: Klucel (hydroxypropylcellulose) (HPC)”, the T/C was 105 % of control.

Regarding `CCCCC(CCCC)CS(=O)[O-].[C-]#[O+].[C-]#[O+].[Fe+6].[c-]1[c-][c-][cH-][c-]1`, the T/C is, setting by setting: (endpoint: mean survival time, dose: 25.0 mg/kg/injection, schedule: Q04DX002 (ip), vehicle: saline) 102 % of control; (endpoint: mean survival time, dose: 50.0 mg/kg/injection, schedule: Q04DX002 (ip), vehicle: saline) 87 % of control; (endpoint: mean survival time, dose: 100.0 mg/kg/injection, schedule: Q04DX002 (ip), vehicle: saline) 106 % of control.

With `CCC(COC(=O)c1ccc([N+](=O)[O-])cc1)NC1CCCCC1` (stereo unspecified), the T/C is, setting by setting: (endpoint: mean survival time, dose: 75.0 mg/kg/injection, schedule: Q01DX001 (ip), vehicle: saline) 102 % of control; (endpoint: mean survival time, dose: 150.0 mg/kg/injection, schedule: Q01DX001 (ip), vehicle: saline) 103 % of control; (endpoint: mean survival time, dose: 300.0 mg/kg/injection, schedule: Q01DX001 (ip), vehicle: saline) 101 % of control.

In the case of `CCN(CC)c1cc(Cl)ccc1C`, the T/C by setting is: (endpoint: mean survival time, dose: 12.5 mg/kg/injection, schedule: Q04DX002 (ip), vehicle: saline with Tween-80) 98 % of control; (endpoint: mean survival time, dose: 25.0 mg/kg/injection, schedule: Q04DX002 (ip), vehicle: saline with Tween-80) 95 % of control; (endpoint: mean survival time, dose: 50.0 mg/kg/injection, schedule: Q04DX002 (ip), vehicle: saline with Tween-80) 98 % of control; (endpoint: mean survival time, dose: 100.0 mg/kg/injection, schedule: Q01DX001 (ip), vehicle: saline sonified) 101 % of control; (endpoint: mean survival time, dose: 200.0 mg/kg/injection, schedule: Q01DX001 (ip), vehicle: saline sonified) 95 % of control; (endpoint: mean survival time, dose: 400.0 mg/kg/injection, schedule: Q01DX001 (ip), vehicle: saline sonified) 86 % of control.

Consider `CCC[CH2][Sn]1([CH2]CCC)[O]C2C(CO)OC(n3c(Br)c(C#N)c4c(N)ncnc43)C2[O]1` (stereo unspecified), for which the T/C reads like this: (endpoint: mean survival time, dose: 1.56 mg/kg/injection, schedule: Q01DX005 (ip), vehicle: distilled water + Tween-80) 93 % of control; (endpoint: mean survival time, dose: 3.13 mg/kg/injection, schedule: Q01DX005 (ip), vehicle: distilled water + Tween-80) 98 % of control.

Consider `C#CCNC1=C(C)C(=O)C2=C(C1=O)[C@H](COC(N)=O)[C@]1(OC)[C@@H]3N[C@@H]3CN21`, for which the T/C runs as follows: (endpoint: mean survival time, dose: 1.5 mg/kg/injection, schedule: Q01DX001 (ip), vehicle: distilled water + Tween-80) 112 % of control; (endpoint: mean survival time, dose: 3.0 mg/kg/injection, schedule: Q01DX001 (ip), vehicle: distilled water + Tween-80) 120 % of control and 102 % of control; (endpoint: mean survival time, dose: 6.0 mg/kg/injection, schedule: Q01DX001 (ip), vehicle: distilled water + Tween-80) 110 % of control; (endpoint: mean survival time, dose: 24.0 mg/kg/injection, schedule: Q01DX001 (ip), vehicle: distilled water + Tween-80) 186 % of control; (endpoint: mean survival time, dose: 48.0 mg/kg/injection, schedule: Q01DX001 (ip), vehicle: distilled water + Tween-80) 87 % of control; (endpoint: median survival time, dose: 6.0 mg/kg/injection, schedule: Q01DX009 (ip), vehicle: distilled water + Tween-80) 166 % of control. Besides, the T/C was 178 % of control (endpoint: median survival time, dose: 6.25 mg/kg/injection, schedule: Q01DX009 (ip), vehicle: distilled water + Tween-80); 101 % of control (endpoint: median survival time, dose: 12.5 mg/kg/injection, schedule: Q01DX009 (ip), vehicle: distilled water + Tween-80); 92 % of control (endpoint: median survival time, dose: 25.0 mg/kg/injection, schedule: Q01DX009 (ip), vehicle: distilled water + Tween-80).

On to `CCOC(=O)N1C2c3ccccc3C(c3ccccc32)N1C(=O)OCC`, for which the T/C was 94 % of control under setting [1]; 95 % of control under setting [2]; 89 % of control under setting [3]; 98 % of control under setting [4]; 93 % of control under setting [5].

Values taken from PubChem BioAssay AID256 (DTP/NCI, 2004).
